Experimental findings from patent US4845294A, “Diaminotetrafluoroethoxybenzenes” (Wella Aktiengesellschaft, priority 1984, dated 1989) are described below.

What all share (assay): Ames mutagenicity test (back mutation)
Common to all, as to type: cell-based
Holding throughout (design): key: -: no back mutation; (+): slight back mutuation; +: increasing back mutation; ++: increasing back mutation

The test system of data set [1] is Salmonella thyphimurium strain TA 98. From the text: (§1) Salmonella thyphimurium strains
(§2) without (-) and with (+) S9 - Mix

In data set [2] the test system is Salmonella thyphimurium strain TA 100.
Excerpt: as §1, §2

The test system of data set [3] is Salmonella thyphimurium strain TA 97.
Excerpt: as §1, §2

For 2,4-diaminotrifluoroethoxybenzene, the “Ames test result, TA 98” value in data set [1] (with (+) S9-Mix) is given as “++”; in data set [1] (without (-) S9-Mix), “-”. Further, the “Ames test result, TA 100” value in data set [2] (with (+) S9-Mix) is recorded as “(+)”; in data set [2] (without (-) S9-Mix), “-”. In addition, the “Ames test result, TA 97” value in data set [3] (with (+) S9-Mix) and in data set [3] (without (-) S9-Mix) was “-” throughout.
With `COc1ccc(N)cc1N` [2,4-diaminoanisol], the results for the “Ames test result, TA 98” value in data set [1] (with (+) S9-Mix) and in data set [1] (without (-) S9-Mix) were “++” and “-”, respectively. The entries for the “Ames test result, TA 100” value in data set [2] (with (+) S9-Mix) and in data set [2] (without (-) S9-Mix) were “(+)” and “-”, respectively. In addition, the “Ames test result, TA 97” value in data set [3] (with (+) S9-Mix) was “+”; in data set [3] (without (-) S9-Mix), “-”.
On to `Cc1cc(OC(F)(F)C(F)F)c(N)cc1N` [2,4-diamino-5-tetrafluoroethoxy-toluene, 2,4-diamino-5-tetrafluoroethoxytoluene], for which the “Ames test result, TA 98” value in data set [1] (with (+) S9-Mix) and in data set [1] (without (-) S9-Mix) was “-” in each case. For the same compound, the “Ames test result, TA 100” value in data set [2] (with (+) S9-Mix) and in data set [2] (without (-) S9-Mix) was “-” in each case. In addition, the “Ames test result, TA 97” value in data set [3] (with (+) S9-Mix) and in data set [3] (without (-) S9-Mix) was “-” each time.
For the compound `CCOc1ccc(N)cc1N` [2,4-diaminophenetol], the entries for the “Ames test result, TA 98” value in data set [1] (with (+) S9-Mix) and in data set [1] (without (-) S9-Mix) were “++” and “-”, respectively. In addition, the “Ames test result, TA 100” value in data set [2] (with (+) S9-Mix) and in data set [2] (without (-) S9-Mix) was “-” in each case. Also, the “Ames test result, TA 97” value in data set [3] (with (+) S9-Mix) is reported as “+”; in data set [3] (without (-) S9-Mix), “-”.
With `Nc1ccc(OC(F)(F)C(F)F)c(N)c1` [2,4-diaminotetrafluoroethoxybenzene], the entries for the “Ames test result, TA 98” value in data set [1] (with (+) S9-Mix) and in data set [1] (without (-) S9-Mix) were “+” and “-”, respectively. The “Ames test result, TA 100” value in data set [2] (with (+) S9-Mix) and in data set [2] (without (-) S9-Mix) was “-” throughout. Also, the figures for the “Ames test result, TA 97” value in data set [3] (with (+) S9-Mix) and in data set [3] (without (-) S9-Mix) were “(+)” and “-”, respectively.
